Test results: patent US11484603B2, “Methods, systems, and compositions for inhibiting virulence of A/E family pathogens” (ARIZONA BOARD OF REGENTS ON BEHALF OF THE UNIVERSITY OF …, priority 2017, dated 2022)

Assays:
[1] = test system: EspZ dimerization/oligomerization; test: ToxLuc system (ToxR-TM-MBP fusions, ctx promoter luciferase reporter); type: cell-based, EPEC; settings: TM2 derivatives expressed as ToxR-TM-MBP fusions in E. coli ΔmalE strain (NT326); baseline Ala17
From the text: (§1) Directional targeting of the TM region to the inner membrane allows the periplasmic MBP domain to complement the growth of the ΔmalE strain in medium containing maltose as the sole carbon source. […] TM domain interactions induce dimerization of cytoplasmic ToxR domains, allowing the transcriptional activator to bind to the ctx promoter and promote expression of the downstream luciferase reporter. […] A 17-residue poly-alanine stretch (Ala17) was used as a baseline TM control for nonspecific ToxR-dependent luciferase activation. A GpA GXXXG mutant (G831) was impaired for luciferase activation (REF).
as §1, with “Membrane-localized GXXXG sequences can promote homo- and hetero-typic interactions between proteins. Referring to FIG. 5A and FIG. 5B, a ToxLuc system was used to verify targeting of the predicted EspZ TM regions to the membrane and to assess the role of GXXXG sequences in EspZ dimerization/oligomerization. […] Western blot analyses confirmed robust expression of all ToxR-TM-MBP fusion proteins. Directional” for “Directional”, “activation. As noted previously, a” for “activation. A”, “mutant (G83I)” for “mutant (G831)”

mitochondrial network = test: CCCP-induced perturbation of the mitochondrial network (COXIV/DAPI stain); type: cell-based; settings: compared to mock-treated controls
From the text: In transfected cells, EspZ prevented COOP-induced perturbation of the mitochondrial network (compared to control vector-transfected cells). Red=COXIV (mitochondrial stain); blue=DAPI stain.
The uncoupler carbonyl cyanide m-chlorophenylhydrazone (COOP) induces Fis1- and Drp1-dependent mitochondrial fission. In transfected cells, EspZ prevented COOP-induced perturbation of the mitochondrial network (see FIG. 10). Thus, EspZ may be necessary and sufficient for inhibiting mitochondrial fission.

Molecule | luciferase activity (TM self-association) [1] | effect on mitochondrial network (mitochondrial network)
LGLLIAALVLGLVTTVAGGLAMK (Artificial inhibitor peptide based on EspZ) [all three G residues, targeting peptide, EspZ TM2 derivative] | abrogated luciferase expression | 
LGLGIAALVLGGVTTVAGGLAMK (Artificial inhibitor peptide based on EspZ) [G81L, targeting peptide, EspZ TM2 derivative] | reduced luciferase activity to near-baseline levels | 
N#CC(C#N)=NNc1cccc(Cl)c1 [CCCP, carbonyl cyanide m-chlorophenylhydrazone] |  | causes fragmentation of the mitochondrial network and its retraction towards the nucleus
LGLGIAAGVLGLVTTVAGGLAMK (Artificial inhibitor peptide based on EspZ) [G85L, targeting peptide, EspZ TM2 derivative] | reduced luciferase activity to near-baseline levels | 
